How the values were obtained:
[1] = molecular target: phosphodiesterase-5 (PDE5); settings: previously reported tadalafil analogues, introduction; cited from earlier work
recombinant human PDE5 = molecular target: T1, recombinant human PDE5 (Homo sapiens, UniProt O76074); test: In vitro PDE5 inhibitory activity (IMAP FP phosphodiesterase assay); assay type: biochemical; settings: purified PDE5, 50 nM TAMRA-cGMP, 1.5 h at 30 °C; 10 concentrations, at least two replicates; read-out: PDE5 Inhibition IC50
T1 construct: purchased BPS Biosciences, San Diego, CA, USA
Procedure: Phosphodiesterase Assay: 5 U/mL of purified PDE5 (BPS Biosciences, San Diego, CA, USA) was added to the wells of black 96-well non-binding plates. Immediately, the protein was treated with the compound or vehicle control and 50 nM TAMRA-cGMP and 50 nM Fluourescein-cAMP (Molecular Devices, Sunnyvale, CA, USA) were added to each assay well. The plates were incubated for 1.5 h at 30 °C. After incubation, the IMAP FP Phosphodiesterase Evaluation Assay (Molecular Devices, Sunnyvale, CA, USA) binding reagent was added to each well and the plates were incubated for an additional 30 min at 30 °C. FP was measured according to manufacturer’s specifications using a Biotech Synergy 4 plate reader. PDE activity was expressed by an IC50 value (50% inhibitory concentration). Data analysis was done through dose-response analysis, which was repeated at least twice to confirm the reproducibility of the IC50 values.
All the synthesized final THβC compounds were tested for their ability to inhibit recombinant human PDE5. Most of the compounds were evaluated in two steps. The first step was the determination of the percentage inhibition at a screening dose of 10 μM performed in triplicate. For compounds displaying a percentage of inhibition >50%, the IC50 was then determined by testing a range of 10 concentrations with at least two replicates per concentration (Table 2).

Structure (SMILES)	IC50 [1] [µM]	melting point [°C]	IC50 (recombinant human PDE5) [µM]
CCN1CC(=O)N2[C@H](c3ccc(Cl)cc3)c3[nH]c4ccccc4c3C[C@@H]2C1=O [Compound 2]	0.003	–	–
NCCN1CC(=O)N2[C@H](c3ccc(Cl)cc3)c3[nH]c4ccccc4c3C[C@@H]2C1=O [Compound 6b, (6R,12aR)-2-(2-Amino-ethyl)-6-(4-chloro-phenyl)-2,3,6,7,12,12a-hexahydro-pyrazino[1’,2’:1,6]pyrido[3,4-b]indole-1,4-dione]	–	231 to 234	3.6
O=C1[C@H]2Cc3c([nH]c4ccccc34)[C@@H](c3ccc(Cl)cc3)N2C(=O)CN1CCO [Compound 6a, (6R,12aR)6-(4-Chloro-phenyl)-2-(2-hydroxy-ethyl)-2,3,6,7,12,12a-hexahydro-pyrazino[1’,2’:1,6]pyrido[3,4-b]indole-1,4-dione]	–	230 to 233	> 10
O=C1[C@H]2Cc3c([nH]c4ccccc34)[C@H](c3ccc(Cl)cc3)N2C(=O)CN1CCCCO [Compound 6g, (6S,12aR)-6-(4-Chloro-phenyl)-2-(4-hydroxy-butyl)-2,3,6,7,12,12a-hexahydropyrazino[1’,2’:1,6]pyrido[3,4-b]indole-1,4-dione]	–	200 to 203	> 10
NCCN1CC(=O)N2[C@@H](c3ccc(Cl)cc3)c3[nH]c4ccccc4c3C[C@@H]2C1=O [Compound 6f, (6S,12aR)-2-(2-Amino-ethyl)-6-(4-chloro-phenyl)-2,3,6,7,12,12a-hexahydro-pyrazino[1’,2’:1,6]pyrido[3,4-b]indole-1,4-dione]	–	200 to 204	> 10
CCN1CC(=O)N2[C@H](c3ccc(Br)cc3)c3[nH]c4ccccc4c3C[C@@H]2C1=O [Compound 3]	0.003	–	–
O=C1[C@@H]2Cc3c([nH]c4ccccc34)[C@H](c3ccc(Cl)cc3)N2C(=O)CN1CCO [Compound 6i, (6S,12aS)-6-(4-Chloro-phenyl)-2-(2-hydroxy-ethyl)-2,3,6,7,12,12a-hexahydro-pyrazino[1’,2’:1,6]pyrido[3,4-b]indole-1,4-dione]	–	231 to 233	> 10

Reference: publication PMC5064235, “Structure-Based Design of Novel Tetrahydro-Beta-Carboline Derivatives with a Hydrophilic Side Chain as Potential Phosphodiesterase Inhibitors” (Scientia Pharmaceutica, 2015)
